Source: the SangsterLogP compilation

Experiments:
[1] = method code SF-HPLC, from PMID: 1515051; settings: pH 6.0
[2] = method code SF-GLC, from DOI: 10.1007/bf00224496
[3] = method code SF-AS, from PMID: 3699148; settings: pH 7.4
[4] = method code SF-AS, from DOI: 10.1111/j.1476-5381.1988.tb11523.x, PMID: 2900037
[5] = method code SF-AS, from DOI: 10.1007/bf01067967, PMID: 3820093; settings: pH 7.5
[6] = method code SF-CR, from DOI: 10.1248/cpb.21.2417, PMID: 4779830; settings: pH 6.0
[7] = method code SF-HPLC, from DOI: 10.1080/01483919108049396; settings: pH 7.0
[8] = method code SF-HPLC, from DOI: 10.1016/0006-2952(84)90322-8, PMID: 6704182
[9] = method code SF-AS, from DOI: 10.1021/jm00075a005, PMID: 8246220; settings: pH 7.4
[10] = method code SF-GLC, from DOI: 10.1021/je970069v
[11] = method code SF-EPR, from DOI: 10.1007/bf01870789, PMID: 2549250; settings: pH 12.0
[12] = not given; remark: listed apart in the source
[13] = method code SF-AS, from DOI: 10.1002/jps.2600650731; settings: pH 11.5
[14] = method code SF-AS, from DOI: 10.1002/ddr.430140205; settings: pH 7.4
[15] = method code SF-CR+DM, from DOI: 10.1021/ja01573a017; settings: pH 6.5
[16] = method code SF-AS, from KuchaÅ™, M.; Rejholec, V.; Miller, V. (1985). Chromatographically determined lipophilicity and intramolecular interactions of bioactive compounds. Pharmacochemistry Library, 8, 321-331.; settings: pH 3.4
[17] = method code SF-RC, from DOI: 10.1016/s0969-8051(98)00096-1, PMID: 10100217; settings: pH 7.4
[18] = not given; remark: listed apart in the source
[19] = method code SF-AS, from DOI: 10.1021/jm00163a043, PMID: 2153206; settings: pH 7.0

c1ccc2[nH]c(-c3cscn3)nc2c1
logD [1]: 2.47

C=C1CCC2(C(C)C)CC12 (stereo not drawn)
logP [2]: 4.63

Cc1ccc(SCCNc2ccccc2C(N)=O)cc1
logD [3]: 3.15

CCOP(=S)(OCC)Oc1ccc([N+](=O)[O-])cc1
logP: 3.45

CNC(=C[N+](=O)[O-])NCCSCc1nccs1
logD ([4]; pH 9.0): -0.15

CC(C)c1ccc(N)cc1
logD [5]: 2.31

CN(c1nccs1)S(=O)(=O)c1ccc(N)cc1
logD [6]: 1.63

Nc1ncnc2c1ncn2C1CCC(CO)O1 (stereo not drawn)
logD [7]: -0.29

CNC(=NC#N)NCCSCc1csc(N=C(N)N)n1
logD ([4]; pH 9.0): 0.6

CC(=O)OC[C@H]1O[C@@H](n2ccc(N)nc2=O)[C@@H](OC(C)=O)[C@@H]1OC(C)=O
logP [8]: -0.8

COc1ccc(CON2C(=O)CC3(CCCC3)C2=O)cc1
logD [9]: 2.23

Cc1c(Cl)cc(C(C)C)c(Cl)c1Cl
logP [10]: 6.2

CC(=O)Nc1ccn([C@@H]2O[C@H](COC(C)=O)[C@@H](OC(C)=O)[C@@H]2OC(C)=O)c(=O)n1
logP [8]: -0.16

CN(CCO)C1CC(C)(C)N(O)C(C)(C)C1
logD [11]: 0.53

CCON1C(=O)CC2(CCCC2)C1=O
logD [9]: 1.26

Nc1ccc2ccccc2c1
logD [5]: 2.4

[cH:1]1[c:2]([Cl:3])[c:4]2[cH:5][cH:6][cH:7][c:8]([Cl:9])[c:10]2[cH:11][cH:12]1
logP [12]: 4.67

CC1(C)C2CC3C(C2)C31C
logP [2]: 4.85

CCCCCC/N=C(N)/N=C(\N)Nc1ccc(Cl)cc1
logD [13]: 1.85

Nc1cc(-c2ccncc2)c[nH]c1=O
logD [14]: 0.54

CN1C=CSC1NS(=O)(=O)c1ccc(N)cc1 (stereo not drawn)
logD [6]: -0.07

O=c1[nH]cnc2c1ncn2[C@H]1C[C@H](O)[C@@H](CO)O1
logD [7]: -1.71

CN1C=CC=CC1NS(=O)(=O)c1ccc(N)cc1 (stereo not drawn)
logD [6]: -0.58

O=[N+]([O-])c1ccc2c(O)cccc2c1
logD [15]: 3.5

CC1(C)CC(N)CC(C)(C)N1O
logD [11]: 0.56

CCC/N=C(N)/N=C(\N)Nc1ccc(Cl)cc1
logD [13]: 2.63

O=c1ccn(C2OC(CO)C(O)C2O)c(=O)[nH]1 (stereo not drawn)
logP [8]: -1.81

Oc1c(Cl)cc(Cl)c2ccccc12
logD [15]: 4.76

NC(=O)c1cc(Cl)ccc1NCCO
logD [3]: 1.26

O=C(Nc1ccn([C@H]2C[C@H](O)[C@@H](CO)O2)c(=O)n1)c1ccccc1
logD [7]: 0.67

Cc1cc(Cl)c(C(C)C)cc1Cl
logP [10]: 5.6

CNC1CC(C)(C)N(O)C(C)(C)C1
logD [11]: 0.84

COc1ccc(C(=O)CCCC(=O)O)cc1
logD [16]: 1.63

C=C1C2CCC(C2)C1(C)C (stereo not drawn)
logP [2]: 4.56

O=C1CC2(CCCC2)C(=O)N1Oc1ccccc1
logD [9]: 1.77

CCCCc1ccc(N)cc1
logD [5]: 3.05

COC1=C(OC)C(=O)C(C)=CC1=O
logD [17]: 0.73

Clc1cccc2ccccc12
logP [12]: 3.9

Cc1ccc(CCCC(N)=O)c(O)c1
logD [15]: 2.26

O=C(NCCCOc1cccc(N2CCCCC2)c1)c1ccccc1
logD ([4]; pH 7.5): 3.97

Cc1c(Cl)c(Cl)c(C(C)C)c(Cl)c1Cl
logP [10]: 6.8

COC1=C(OC)C(=O)C(CCCCCCCCCCO)=C(C)C1=O
logD [17]: 2.96

CCc1[nH]c(=O)[nH]c1C(=O)c1ccncc1
logD [14]: 0.08

CCCCOc1ccc(CC(=O)O)cc1
logP [18]: 2.94

CC(C)Cn1c(=O)n(C)c(=O)c2nc[nH]c21
logD [14]: 1.22

CC1(C)C(C=C(Cl)Cl)C1C(=O)OCc1cccc(Oc2ccccc2)c1 (stereo not drawn)
logP: 5.85

Clc1ccc2cccc(Cl)c2c1
logP [12]: 4.56

CN(C(=N)N)/C(N)=N/c1ccc(Cl)cc1
logD [13]: 1.58

Cc1ccc(CC(=O)O)cc1
logP [18]: 2.04

CCCOC(=O)n1c(-c2cscn2)nc2ccccc21
logD [1]: 2.98

COC(=O)n1c(-c2cscn2)nc2ccccc21
logD [1]: 2.05

COc1c(O)c(C)c(CCCCCCCCCCO)c(O)c1OC
logD [17]: 2.55

CON(C)C(=O)Nc1ccc(Cl)cc1
logP: 2.16

CC(C)C(C(=O)O)c1ccc([N+](=O)[O-])cc1 (stereo not drawn)
logP [18]: 2.09

NC(=O)c1ccccc1NCCO
logD [3]: -0.05

Cc1cn([C@H]2C[C@H](N=[N+]=[N-])[C@@H](CO)O2)c(=O)[nH]c1=S
logD [19]: 1.07

CCc1ccc(C(C)(O)C(=O)O)cc1 (stereo not drawn)
logD [16]: 1.9

CCC(O)(C(=O)O)c1ccccc1 (stereo not drawn)
logD [16]: 1.37
